Here are results for 11 compounds from US9718788B2, “Heteroaryl compounds useful as inhibitors of E1 activating enzymes” (MILLENNIUM PHARMACEUTICALS, INC., priority 2006, dated 2017).

Usually IC50 stands for the midpoint of a concentration-inhibition curve.

Structures are written as SMILES. Where only a bound is given, the exact number is not on record here.

This test addresses T1, recombinant human NAE enzyme (Homo sapiens, UniProt Q8TBC4).
T1 construct: His (N); made in house; host or cells: Sf9 insect cells (baculovirus, Bac-to-Bac)
T1 sequence (Q8TBC4 1-463): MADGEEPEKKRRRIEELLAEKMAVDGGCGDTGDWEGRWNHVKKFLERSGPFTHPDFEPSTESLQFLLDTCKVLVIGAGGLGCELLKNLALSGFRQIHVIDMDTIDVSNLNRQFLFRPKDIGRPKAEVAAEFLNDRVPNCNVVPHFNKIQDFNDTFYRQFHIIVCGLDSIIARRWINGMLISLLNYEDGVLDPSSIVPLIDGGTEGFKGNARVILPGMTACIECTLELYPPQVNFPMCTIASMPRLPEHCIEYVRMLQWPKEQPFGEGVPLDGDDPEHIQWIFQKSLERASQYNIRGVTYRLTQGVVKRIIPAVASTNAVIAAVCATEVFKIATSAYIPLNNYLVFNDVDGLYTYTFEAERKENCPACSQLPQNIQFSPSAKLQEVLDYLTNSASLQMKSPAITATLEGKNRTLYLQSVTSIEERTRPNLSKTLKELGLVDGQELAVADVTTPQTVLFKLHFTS
T1 sequence (Q13564 1-534 partner): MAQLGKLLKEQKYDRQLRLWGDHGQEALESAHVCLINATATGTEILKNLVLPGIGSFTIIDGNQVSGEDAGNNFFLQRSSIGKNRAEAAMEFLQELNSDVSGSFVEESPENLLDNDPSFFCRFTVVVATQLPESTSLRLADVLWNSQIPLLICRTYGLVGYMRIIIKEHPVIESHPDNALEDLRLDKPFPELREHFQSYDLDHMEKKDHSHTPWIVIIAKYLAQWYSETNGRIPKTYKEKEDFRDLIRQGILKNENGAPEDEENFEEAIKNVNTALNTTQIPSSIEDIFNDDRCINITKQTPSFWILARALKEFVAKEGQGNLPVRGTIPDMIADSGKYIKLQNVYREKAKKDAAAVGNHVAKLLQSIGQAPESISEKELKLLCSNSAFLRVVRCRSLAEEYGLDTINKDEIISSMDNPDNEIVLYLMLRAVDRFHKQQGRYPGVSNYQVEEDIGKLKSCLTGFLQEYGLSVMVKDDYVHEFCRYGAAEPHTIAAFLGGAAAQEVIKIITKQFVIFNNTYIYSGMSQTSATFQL
The test can be described thus: Nedd8-Activating Enzyme (NAE) HTRF Assay. The test is classed as biochemical. The settings on record: 20 μM ATP. Here is the method:
Following manufacturer instructions, baculoviruses were generated with the Bac-to-Bac Expression System (Invitrogen) for the following proteins: untagged NAEα (APPBP1; NP_003896.1), N-terminally His-tagged NAEJ (UBE1C; NP_003959.3), untagged SAEα (SAE1; NP_005491.1), N-terminally His-tagged SAE3 (UBA2; NP_005490.1), N-terminally His-tagged murine UAE (UBE1X; NP_033483). NAEα/His-NAEβ and SAEα/His-SAEβ complexes were generated by co-infection of Sf9 cells, which were harvested after 48 hours. His-mUAE was generated by single infection of Sf9 cells and harvested after 72 hours. Expressed proteins were purified by affinity chromatography (Ni-NTA agarose, Qiagen) using standard buffers. Nedd8-Activating Enzyme (NAE) HTRF Assay. The NAE enzymatic reaction totaled 50 μL and contained 50 mM HEPES (pH 7.5), 0.05% BSA, 5 mM MgCl2, 20 μM ATP, 250 μM GSH, 0.01 μM Ubc12-GST, 0.075 μM Nedd8-Flag and 0.20 nM recombinant human NAE enzyme. The enzymatic reaction mixture, with and without compound inhibitor, was incubated at room temperature 24° C. for 105 minutes in a 384-well plate before termination with 25 μL of Stop/Detection buffer (0.1M HEPES pH 7.5, 0.05% Tween20, 20 mM EDTA, 410 mM KF, 0.53 nM Europium-Cryptate labeled monoclonal anti-FLAG M2 antibody (CisBio International) and 8.125 μg/mL PHYCOLINK goat anti-GST allophycocyanin (XL-APC) antibody (Prozyme)). After incubation for 1 hour at 24° C., quantification of the FRET was performed on the Analyst™ HT 96.384 (Molecular Devices).
Background: In TR-FRET formats the signal depends on donor and acceptor labels being close together.

Consider `CC1(C)C[C@H](Nc2cc(O[C@@H]3C[C@@H](COS(N)(=O)=O)[C@@H](O)C3)ccn2)c2ccc(Cl)cc21` [Compound I-35, {(1S,2S,4R)-4-[(2-{[(1S)-5-chloro-3,3-dimethyl-2,3-dihydro-1H-inden-1-yl]-amino}-pyridin-4-yl)oxy]-2-hydroxycyclopentyl}methyl sulfamate], for which the IC50 by setting is: (bound given in nM) greater than 500 nM; (bound given in μM) less than 10000 nM.

For `NS(=O)(=O)OC[C@H]1C[C@@H](NC(=O)c2cccnc2)[C@H](O)[C@@H]1O` [Compound I-16, {(1R,2R,3S,4R)-2,3-dihydroxy-4-[(pyridin-3-ylcarbonyl)amino]cyclopentyl}-methyl sulfamate], the half-maximal inhibitory concentration (IC50) (bound given in nM) is greater than 500 nM and the IC50 (bound given in μM) is less than 10000 nM.

As to `CO[C@H]1Cc2ccccc2[C@H]1Nc1ncnc(N[C@@H]2C[C@H](COS(N)(=O)=O)[C@@H](O)[C@H]2O)n1` [Compound I-55, {(1R,2R,3S,4R)-2,3-dihydroxy-4-[(4-{[(1R,2S)-2-methoxy-2,3-dihydro-1H-inden-1-yl]amino}-1,3,5-triazin-2-yl)amino]cyclopentyl}methyl sulfamate], the IC50 (bound given in nM) is no more than 500 nM.

On to `CO[C@@H]1CC(C)(C)c2ccccc2[C@@H]1Nc1cc(O[C@@H]2C[C@@H](COS(N)(=O)=O)[C@@H](O)C2)ncn1` [Compound I-151, {(1S,2S,4R)-2-hydroxy-4-[(6-{[(1S,2R)-2-methoxy-4,4-dimethyl-1,2,3,4-tetrahydronaphthalen-1-yl]amino}pyrimidin-4-yl)oxy]cyclopentyl}methyl sulfamate], for which, for the setting “bound given in nM”, the IC50 is no more than 500 nM.

`CC(C)(C)c1nc2c(N[C@@H]3C[C@@H](COS(N)(=O)=O)[C@@H](O)C3)ncnc2[nH]1` [Compound I-131, {(1S,2S,4R)-4-[(8-tert-butyl-9H-purin-6-yl)amino]-2-hydroxycyclopentyl}methyl sulfamate]: for the setting “bound given in nM”, the IC50 was no more than 500 nM.

`NS(=O)(=O)OC[C@H]1C[C@@H](Nc2cc(N[C@@H]3CCc4ccccc43)ncn2)[C@H](O)[C@@H]1O` [Compound I-8, [(1R,2R,3S,4R)-4-({6-[(1R)-2,3-dihydro-1H-inden-1-ylamino]pyrimidin-4-yl}-amino)-2,3-dihydroxycyclopentyl]methyl sulfamate]: the IC50 (bound given in nM) is no more than 500 nM.

On to `NS(=O)(=O)OC[C@@H]1C[C@@H](Nc2cc(N[C@H]3CCc4ccccc43)ncn2)C[C@@H]1O` [Compound I-5, [(1S,2S,4R)-4-({6-[(1S)-2,3-dihydro-1H-inden-1-ylamino]pyrimidin-4-yl}amino)-2-hydroxycyclopentyl]methyl sulfamate], for which the IC50 (bound given in nM) is no more than 500 nM.

`COc1cccc(-c2nc3c(N[C@@H]4C[C@@H](COS(N)(=O)=O)[C@@H](O)C4)ncnc3[nH]2)c1` [Compound I-99, ((1S,2S,4R)-2-hydroxy-4-{[8-(3-methoxyphenyl)-9H-purin-6-yl]amino}cyclopentyl)methyl sulfamate]: the IC50 (bound given in nM) is no more than 500 nM.

For `CO[C@@H]1Cc2ccccc2[C@@H]1Oc1cc(O[C@@H]2C[C@@H](COS(N)(=O)=O)[C@@H](O)C2)ncn1` [Compound I-98, {(1S,2S,4R)-2-hydroxy-4-[(6-{[(1S,2R)-2-methoxy-2,3-dihydro-1H-inden-1-yl]oxy}-pyrimidin-4-yl)oxy]cyclopentyl}methyl sulfamate], the half-maximal inhibitory concentration (IC50) is greater than 500 nM (bound given in nM) and less than 10000 nM (bound given in μM).

In the case of `NS(=O)(=O)OC[C@@H]1C[C@@H](Nc2ncnc3[nH]c(-c4ccccc4OC(F)(F)F)nc23)C[C@@H]1O` [Compound I-62, [(1S,2S,4R)-2-hydroxy-4-({8-[2-(trifluoromethoxy)phenyl]-9H-purin-6-yl}-amino)cyclopentyl]methyl sulfamate], where the note is “bound given in nM”, the half-inhibitory concentration (IC50) is no more than 500 nM.

With `COc1ccc2c(c1)[C@@H](Nc1cc(O[C@@H]3C[C@@H](COS(N)(=O)=O)[C@@H](O)C3)ncn1)[C@@H](OC)CC2` [Compound I-149, {(1S,2S,4R)-4-[(6-{[(1R,2S)-2,7-dimethoxy-1,2,3,4-tetrahydronaphthalen-1-yl]amino}-pyrimidin-4-yl)oxy]-2-hydroxycyclopentyl}methyl sulfamate], the IC50 (bound given in nM) was greater than 500 nM and the IC50 (bound given in μM) was less than 10000 nM.
